In paper PMC10384246, “Discovery of New Uracil and Thiouracil Derivatives as Potential HDAC Inhibitors” (Pharmaceuticals, 2023):
Several values for one entry are separate records, joined by “and”; a condition that tells them apart may be missing. Equal values may be shown once.

Columns and labels:
[1] = test system: colorectal carcinoma (HCT-116); experiment: MTT anti-proliferative assay, HCT-116; assay type: cell-based; conditions: Homo sapiens, HCT-116, read-out: Cytotoxicity IC50 HCT-116
Experimental: (§1) Sorafenib was used as a reference drug.
(§2) Anti-proliferative activity activities were tested using MTT assay as described in Supplementary Materials. […]
(§3) S2.1. In vitro anti-proliferative activities
(§4) The in vitro antiproliferative activities of all the synthesized compounds against three human tumor cell lines namely, MCF-7 (human breast cancer cell line), HepG2 (human liver […]
(§5) in the literature, using MTT assay protocol. Sorafenib was used in this test as a positive control.
(§6) The anti-proliferative activity was assessed quantitatively as follows.
(§7) Human cancer cell lines were seeded in 96-well plates at a density of 3-8 × 10^3 cells/well.
(§8) Next, the cells were incubated for 12 h in a 5% CO2 incubator at 37 °C. Then, for each well, the growth medium was exchanged with 0.1 ml of fresh medium containing graded concentrations of the test compounds or equal DMSO. Then 10 μl MTT solution ([…]) was added to each well, and the cells were incubated for additional 4 h. The crystals of MTT-formazan were dissolved in 100 μl of DMSO; the absorbance of each well was measured at 490 nm using an automatic ELISA reader system (TECAN, CHE). The IC50 values were calculated using the nonlinear regression fitting models (Graph Pad, Prism Version 5). The data represented the mean of three independent experiments in triplicate and were expressed as means ± SD. The IC50 value was […]
(§9) defined as the concentration at which 50% of the cells could survive. […]

[2] = test system: MCF-7 (human breast cancer cell line); experiment: MTT anti-proliferative assay, MCF-7; assay type: cell-based; conditions: MCF7, MCF-7, mean of at least three experiments, read-out: Cytotoxicity IC50 MCF-7
Experimental: as §1, §2, §3, §4, §5, §6, §7, §8, §9

[3] = in vitro; conditions: human
[4] = target: HDAC1 (Homo sapiens, UniProt Q13547); experiment: In vitro HDAC1 inhibitory assay; assay type: biochemical
Sequence of HDAC1 (Q13547 whole entry): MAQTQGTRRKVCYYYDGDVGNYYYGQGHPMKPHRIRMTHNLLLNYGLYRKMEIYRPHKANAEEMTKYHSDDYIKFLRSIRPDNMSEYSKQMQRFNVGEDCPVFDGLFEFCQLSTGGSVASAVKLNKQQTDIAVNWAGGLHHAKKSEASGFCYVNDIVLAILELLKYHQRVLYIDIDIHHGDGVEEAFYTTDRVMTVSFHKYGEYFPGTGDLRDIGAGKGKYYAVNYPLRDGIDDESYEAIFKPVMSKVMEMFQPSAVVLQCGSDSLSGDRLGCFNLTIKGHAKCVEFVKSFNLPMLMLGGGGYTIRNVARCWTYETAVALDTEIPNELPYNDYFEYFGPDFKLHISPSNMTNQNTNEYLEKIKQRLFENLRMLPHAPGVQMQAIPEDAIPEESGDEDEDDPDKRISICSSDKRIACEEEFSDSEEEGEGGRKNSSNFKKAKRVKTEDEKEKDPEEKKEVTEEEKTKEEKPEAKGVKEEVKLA

[5] = test system: caspase-3; experiment: qRT-PCR caspase-3 level; assay type: cell-based, human; conditions: HCT-116 cells, 72 h, versus untreated cells
Experimental: (§14) Quantitative Real Time Reverse-Transcriptase PCR technique (determination of caspase-3
(§15) The total RNA was extracted from the control and treated cells by using RNeasy mini kit
(§16) (Qiagen, Germany) according the manufacturer's protocol. Then, the isolated RNAs were
(§17) quantitatively and qualitatively assessed using a NanoDrop®1000 spectrophotometer (Thermo
(§18) Scientific, Wilmington, DE, USA). The RNA aliquots were preserved at - 80 °C till the next
(§19) Reverse transcription and quantification of caspase-3 and caspase-8 mRNA
expressions using qRT-PCR:
(§20) iScriptTM One-Step RT-PCR Kit with SYBR® Green kit (BIORAD Laboratories, USA) was used
(§21) for reverse transcription of total RNA and quantification of the targeted mRNA expressions in
(§22) single reaction tube. In depth, the complementary DNA (cDNA) was performed efficiently from
(§23) the isolated RNA using iScriptTM MMLV (Moloney Murine Leukemia Virus) reverse
(§24) transcriptase. While, the relative expression levels of caspase -3 and caspase-8 mRNA were
(§25) determined using 2X SYBR® Green RT -PCR Reaction Mix, containing iTaq TM DNA polymerase
(§26) and SYBR® Green I dye, on the basis of the manufacturer’s guidelines. GAPDH was used as
(§27) housekeeping gene for data normalization. The reaction Mix consisted of 10 μL of 2X SYBR®
(§28) Green RT-PCR Reaction Mix, 1 μl of forward primer, 1 μl of reverse primer, 1 μl of iScript […]
(§29) were determined by using the 2- ΔΔct method.

[6] = test system: caspase-8; experiment: qRT-PCR caspase-8 level; assay type: cell-based, human; conditions: HCT-116 cells, 72 h, versus untreated cells
Experimental: as §14, §15, §16, §17, §18, §19
expressions using qRT-PCR:
as §20, §21, §22, §23, §24, §25, §26, §27, §28, §29

[7] = test system: HepG2 (human liver carcinoma cell line); experiment: MTT anti-proliferative assay, HepG2; assay type: cell-based; conditions: HepG2, mean of at least three experiments, read-out: Cytotoxicity IC50 HepG-2
Experimental: as §1, §2, §3, §4, §5, §6, §7, §8, §9

[8] = test system: HCT-116 cells; experiment: Flow cytometry cell cycle analysis; assay type: cell-based, human; conditions: 78 µM, 72 h, share of cells in phase
Experimental: The effect of the most promising compound, 5m, against the cell cycle was tested in HCT116 cells.
Cell cycle analysis was performed for compound 5m as described in Supplementary Materials. […]
defined as the concentration at which 50% of the cells could survive. The results were expressed […]
S2.2. In-vitro DNA-Flow cytometric (cell cycle) analysis. […]
h. Then, the tested cells were collected by trypsinization and washed in PBS. Ice - cold absolute ethanol was used for fixation of the collected cells. The cells were stained with Cycle TESTTM PLUS DNA Reagent Kit (BD Biosciences, San Jose, CA) accord ing to the manufacturer's instructions. Cell -cycle distribution was evaluated using a flow cytometer.
(§10) S2.3. Annexin V - FITC apoptosis assay.
(§11) To detect the apoptosis induced by compound 5m , HCT-116 cells were seeded and incubated overnight and then treated with compound 5m at concentrations of 78 µM for 72 h. DMSO was chosen as the negative control. After that, the cells were collected and washed with PBS two successive times with centrifugation. Apoptosis detection kit (BD Biosciences, San Jose, CA) was used in this test. According to the manufacturer's protocol the cells were stained by Annexin V-FITC and propidium iodide (PI) in the binding b uffer for 20min at room temperature in the dark. Using a flow cytometer, Annexin V-FITC and PI binding were analyzed. Flowjo software was used to analyze the frequencies in all quadrants.
(§12) S2.4. Apoptotic effect of compound 5m treatment. […]
(§13) cells treated with compound 5m. […]

[9] = target: HDAC4 (Homo sapiens, UniProt P56524); experiment: In vitro HDAC4 inhibitory assay; assay type: biochemical
Sequence of HDAC4 (P56524 whole entry): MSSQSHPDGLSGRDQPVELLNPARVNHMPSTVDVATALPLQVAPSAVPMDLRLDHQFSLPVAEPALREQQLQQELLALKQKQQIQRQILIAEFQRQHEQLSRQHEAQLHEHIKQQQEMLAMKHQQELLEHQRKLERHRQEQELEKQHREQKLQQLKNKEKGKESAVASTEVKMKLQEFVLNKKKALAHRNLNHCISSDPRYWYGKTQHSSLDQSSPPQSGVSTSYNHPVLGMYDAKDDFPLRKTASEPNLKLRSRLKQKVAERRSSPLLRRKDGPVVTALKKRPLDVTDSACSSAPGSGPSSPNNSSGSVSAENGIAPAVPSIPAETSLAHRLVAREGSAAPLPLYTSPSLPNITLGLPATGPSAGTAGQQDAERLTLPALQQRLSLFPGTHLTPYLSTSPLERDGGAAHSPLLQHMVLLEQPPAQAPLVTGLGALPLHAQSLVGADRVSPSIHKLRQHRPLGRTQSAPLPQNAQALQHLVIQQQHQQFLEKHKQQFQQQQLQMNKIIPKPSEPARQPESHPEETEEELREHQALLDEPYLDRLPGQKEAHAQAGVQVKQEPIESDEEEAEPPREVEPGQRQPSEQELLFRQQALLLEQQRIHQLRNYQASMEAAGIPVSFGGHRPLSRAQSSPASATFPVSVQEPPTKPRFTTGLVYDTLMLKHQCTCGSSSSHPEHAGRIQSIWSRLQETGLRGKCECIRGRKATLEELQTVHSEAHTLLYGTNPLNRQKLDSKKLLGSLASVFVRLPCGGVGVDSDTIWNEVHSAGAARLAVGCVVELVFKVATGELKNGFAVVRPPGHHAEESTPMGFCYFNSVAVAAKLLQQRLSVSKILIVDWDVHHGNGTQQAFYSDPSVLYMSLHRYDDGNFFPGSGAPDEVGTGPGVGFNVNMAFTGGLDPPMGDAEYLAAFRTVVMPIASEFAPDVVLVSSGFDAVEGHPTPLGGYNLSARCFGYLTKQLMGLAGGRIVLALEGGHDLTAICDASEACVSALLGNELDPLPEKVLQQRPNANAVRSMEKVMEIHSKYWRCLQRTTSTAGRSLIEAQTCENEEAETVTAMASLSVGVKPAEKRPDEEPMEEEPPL

[10] = test system: HCT-116 cells; experiment: Annexin-V/propidium iodide apoptosis assay; assay type: cell-based, human; conditions: 78 µM, 72 h
Experimental: The tested cells were subjected to 78 µM from compound 5m with an incubation time of 72 h.
The apoptotic effect of the compound 5m was tested as described in Supplementary data. Quantitative Real-Time Reverse-Transcriptase PCR (qRT-PCR) technique Using qRT-PCR, the effect of compound 5m on the expression of cleaved caspase-3 and caspase-8 was determined (Supplementary Materials). […]
as §10, §11, §12, §13

melting point: 257 to 258 °C
IC50 [3]: 65.7 ± 1.7 µM
IC50 [4]: 0.108 µM
IC50 [9]: 6.14 µM
Structure (SMILES): CCCn1c(N)c(C(c2ccc(Cl)cc2)c2c(N)n(CCC)c(=O)[nH]c2=O)c(=O)[nH]c1=O [Compound 5m, 5,5′-((4-Chlorophenyl)methylene)bis(6-amino-1-propylpyrimidine-2,4(1H,3H)-dione)]
IC50 [1]: 78 ± 2 µM
IC50 [2]: 52 ± 3.5 µM
RT-PCR (Fold Change) Caspase-3 [5]: 5 Fold Change and 4.891 Fold Change
RT-PCR (Fold Change) Caspase-8 [6]: 2.5 Fold Change and 2.655 Fold Change
IC50 [7]: 3.3 ± 0.56 µM
%G0–G1 [8]: 55.31%
%G2/M [8]: 9.81%
%S [8]: 34.88%
Apoptotic effect, times/fold compared to control cells ([10]; 37.59% versus 2.17% in control): ~17
DNA Content (%) Early (early apoptosis) ([10]; Annexin-V/PI): 22.36%
DNA Content (%) Late (late apoptosis) ([10]; Annexin-V/PI): 13.14%
DNA Content (%) Total (apoptotic effect) ([10]; Annexin-V/PI): 37.59%
Necrosis ([10]; Annexin-V/PI): 2.09
